The values that follow come from patent US12398097B2, “WDR5-MYC inhibitors” (Vanderbilt University, priority 2019, dated 2025).

Structures are written as SMILES.

For the assay, the target named is WDR5 (Homo sapiens, UniProt P61964). As to the kind of experiment: Competition-based fluorescence polarization anisotropy assay. The conditions noted are these: binding to WDR5; displacement of FITC-labeled small molecule probe (analogous to Example J2 or HCH-25) or peptide probe FITC-AHx-SEEEIDVVSV; pH 6.0; Ki converted from IC50. As for the experimental part:
Compounds of the present invention were assessed for their ability to bind to WDr5 using a competition-based fluorescence polarization anisotropy assay, similar to the method previously described. […] Fluorescence polarization measurements were performed in 384-well plates (Greiner Bio One) using a Cytation 3 plate reader (BioTek). Fluorescein isothiocyanate (FITC)-labeled peptide probe ([…]) was purchased from GenScript USA Inc and used without further purification. […] The assay buffer contained 200 mM phosphate, 300 mM NaCl, and 0.5 mM TCEP and 0.1% Chaps at pH 6.0. […] This was converted into a binding dissociation constant (Ki value) according to the formula: […] Data shown in the table below represents a K; determined from this method for each Example, using either a fluorescently labeled small molecule probe analogous to Example J2 or Example HCH-25, or the peptide probe described above, in the assay.
A general note: In fluorescence polarisation assays a small probe gives low polarisation when free and higher when bound to something large.
In general, Ki refers to a dissociation constant, usually derived from enzyme kinetics or from competition with a known ligand. A low value points to higher affinity. `COC1CC(NC(=O)c2cc(OC(F)(F)F)cc(NS(=O)(=O)c3cc(Br)cc(Cl)c3O)c2O)C1` (stereo not drawn) [HCH-60, 3-((5-Bromo-3-chloro-2-hydroxyphenyl)sulfonamido)-2-hydroxy-N-(3-methoxycyclobutyl)-5-(trifluoromethoxy)benzamide] registered a Ki of 240 nM.
In turn, `O=C(O)c1c(O)c(NS(=O)(=O)c2cc(Br)ccc2O)cc(C2CC2)c1F` [Example J117, 3-((5-Bromo-2-hydroxyphenyl)sulfonamido)-5-cyclopropyl-6-fluoro-2-hydroxybenzoic acid] had an inhibitory constant (Ki) of 30 nM.
`CN1CCN(C(=O)c2cc(C3CC3)cc(NS(=O)(=O)c3cc(Br)ccc3O)c2O)CC1` [Example J92, 5-Bromo-N-(5-cyclopropyl-2-hydroxy-3-(4-methylpiperazine-1-carbonyl)phenyl)-2-hydroxybenzenesulfonamide] gave an inhibition constant (Ki) of 4440 nM.
As to `CS(=O)(=O)c1cc(S(F)(F)(F)(F)F)cc(NS(=O)(=O)c2cc(Br)cc(Cl)c2O)c1O` [Example S18, 5-Bromo-3-chloro-2-hydroxy-N-(2-hydroxy-3-(methylsulfonyl)-5-(pentafluoro-λ^6-sulfaneyl)phenyl)benzenesulfonamide], the Ki was found to be 30 nM.
As to `CNC(=O)c1cc(C2(C#N)CCC2)cc(NS(=O)(=O)c2cc(Br)cc(Cl)c2OC)c1O` [SN-3, 3-((5-bromo-3-chloro-2-methoxyphenyl)sulfonamido)-5-(1-cyanocyclobutyl)-2-hydroxy-N-methylbenzamide], the Ki came out at 13700 nM.
The result for `COc1cc(Cl)c(Br)cc1S(=O)(=O)Nc1cc(C2(C#N)CCC2)cc(C(=O)O)c1O` [Example J207, 3-((5-Bromo-4-chloro-2-methoxyphenyl)sulfonamido)-5-(1-cyanocyclobutyl)-2-hydroxybenzoic acid] reads 220 nM.
Turning to `COc1ccc(Br)cc1S(=O)(=O)Nc1cc(Cl)cc(C(=O)NCCO)c1O` [Example J59, 3-((5-Bromo-2-methoxyphenyl)sulfonamido)-5-chloro-2-hydroxy-N-(2-hydroxyethyl)benzamide], the affinity, expressed as Ki, was 1170 nM.
Then `O=C(NCc1ccc(=O)[nH]c1)c1cc(Cl)cc(NS(=O)(=O)c2cc(Br)ccc2O)c1O` [Example J35, 3-((5-Bromo-2-hydroxyphenyl)sulfonamido)-5-chloro-2-hydroxy-N-((6-oxo-1,6-dihydropyridin-3-yl)methyl)benzamide], with 230 nM.
For `N#CC1(c2cc(NS(=O)(=O)c3cc(Br)cc4c3OCC4)c(O)c(C(=O)O)c2)CCC1` [SN-10, 3-((5-bromo-2,3-dihydrobenzofuran)-7-sulfonamido)-5-(1-cyanocyclobutyl)-2-hydroxybenzoic acid], the inhibition constant Ki is 50 nM.
Take `CCc1cc(Br)cc(S(=O)(=O)Nc2cc(Cl)cc(C(=O)NCC3(O)CCN(C)CC3)c2O)c1O` [HCH-2, 3-((5-Bromo-3-ethyl-2-hydroxyphenyl)sulfonamido)-5-chloro-2-hydroxy-N-((4-hydroxy-1-methylpiperidin-4-yl)methyl)benzamide]: the Ki is 600 nM.
The compound `O=C(NC1COC1)c1cc(NS(=O)(=O)c2cc(Br)ccc2O)cc(C2CC2)c1F` [Example J138, 5-((5-Bromo-2-hydroxyphenyl)sulfonamido)-3-cyclopropyl-2-fluoro-N-(oxetan-3-yl)benzamide] gave an inhibition constant Ki of 4750 nM.
Consider `CCc1cc(NS(=O)(=O)c2cc(Br)cc(Cl)c2O)c(O)c(C(=O)O)c1` [HCH-22, 3-((5-Bromo-3-chloro-2-hydroxyphenyl)sulfonamido)-5-ethyl-2-hydroxybenzoic acid], for which the inhibition constant (Ki) worked out at 90 nM.
The result for `COC[C@H]1CCCN1C(=O)c1cc(Cl)cc(NS(=O)(=O)c2cc(Br)ccc2O)c1O` [Example J28, (R)-5-Bromo-N-(5-chloro-2-hydroxy-3-(2-(methoxymethyl)pyrrolidine-1-carbonyl)phenyl)-2-hydroxybenzenesulfonamide] reads 8290 nM; that for `O=S(=O)(Nc1cc(Cl)cc(S(=O)(=O)NCC2CCCO2)c1O)c1cc(Br)ccc1O` (stereo not drawn) [Example S32-2, 5-Bromo-N-(5-chloro-2-hydroxy-3-(N-((tetrahydrofuran-2-yl)methyl)sulfamoyl)phenyl)-2-hydroxybenzenesulfonamide], 530 nM; that for `COC[C@H]1CCCN1C(=O)c1cc(OC(F)(F)F)cc(NS(=O)(=O)c2cc(Br)ccc2O)c1O` [Example J172, (R)-5-Bromo-2-hydroxy-N-(2-hydroxy-3-(2-(methoxymethyl)pyrrolidine-1-carbonyl)-5-(trifluoromethoxy)phenyl)benzenesulfonamide], 680 nM.
`CCCc1cc(Br)cc(S(=O)(=O)Nc2cc(Cl)cc([N+](=O)[O-])c2O)c1O` [NE10, 5-Bromo-N-(5-chloro-2-hydroxy-3-nitrophenyl)-2-hydroxy-3-propylbenzenesulfonamide] displayed an inhibitory constant (Ki) of 11700 nM.
On to `COCCNS(=O)(=O)c1cc(Cl)cc(NS(=O)(=O)c2cc(Br)ccc2O)c1O` [Example S31, 5-bromo-N-(5-chloro-2-hydroxy-3-(N-(2-methoxyethyl)sulfamoyl)phenyl)-2-hydroxybenzenesulfonamide], for which the Ki is 650 nM.
The result for `CC(O)(CNC(=O)c1cc(OC(F)(F)F)cc(NS(=O)(=O)c2cc(Br)ccc2O)c1O)C1CC1` (stereo not drawn) [HCH-44, 3-((5-Bromo-2-hydroxyphenyl)sulfonamido)-N-(2-cyclopropyl-2-hydroxypropyl)-2-hydroxy-5-(trifluoromethoxy)benzamide] reads 430 nM.
As for `O=C(NC1CCOC1)c1cc(NS(=O)(=O)c2cc(Br)ccc2O)cc(C2CC2)c1F` (stereo not drawn) [Example J139, 5-((5-Bromo-2-hydroxyphenyl)sulfonamido)-3-cyclopropyl-2-fluoro-N-(tetrahydrofuran-3-yl)benzamide], the Ki was found to be 12200 nM.
Compound `COc1cc(F)c(Br)cc1S(=O)(=O)Nc1cc(C2CC2)cc(C(N)=O)c1O` [Example J106, 3-((5-Bromo-4-fluoro-2-methoxyphenyl)sulfonamido)-5-cyclopropyl-2-hydroxybenzamide] came in with a Ki of 1530 nM.
For `CCCc1cc(Br)cc(S(=O)(=O)Nc2cc(OC(F)(F)F)cc(C(=O)O)c2O)c1O` [HCH-16, 3-((5-Bromo-2-hydroxy-3-propylphenyl)sulfonamido)-2-hydroxy-5-(trifluoromethoxy)benzoic acid], the affinity corresponds to a Ki of 110 nM.
With `O=C(O)c1c(O)c(NS(=O)(=O)c2cc(Br)cc(F)c2O)cc(C2CC2)c1F` [Example J119, 3-((5-Bromo-3-fluoro-2-hydroxyphenyl)sulfonamido)-5-cyclopropyl-6-fluoro-2-hydroxybenzoic acid], the Ki came to 130 nM.
The result for `CNC(=O)c1cc(S(F)(F)(F)(F)F)cc(NS(=O)(=O)c2cc(Br)ccc2O)c1O` [Example S66, 3-((5-Bromo-2-hydroxyphenyl)sulfonamido)-2-hydroxy-N-methyl-5-(pentafluoro-λ^6-sulfaneyl)benzamide] reads 20 nM.
`O=C(O)c1cc(NS(=O)(=O)c2cc(Br)ccc2O)cc(C2CC2)c1F` [Example J114, 5-((5-Bromo-2-hydroxyphenyl)sulfonamido)-3-cyclopropyl-2-fluorobenzoic acid] gave an inhibition constant Ki of 520 nM.
The compound `O=C(O)c1cc(Cl)cc(NS(=O)(=O)c2cc(Br)cc(F)c2O)c1O` [Example J5, 3-((5-Bromo-3-fluoro-2-hydroxyphenyl)sulfonamido)-5-chloro-2-hydroxybenzoic acid] returned an inhibition constant Ki of 340 nM.
Take `COC[C@H]1CCCN1C(=O)c1cc(OC(F)(F)F)cc(NS(=O)(=O)c2cc(Br)ccc2OC)c1O` [Example J181, (R)-5-bromo-N-(2-hydroxy-3-(2-(methoxymethyl)pyrrolidine-1-carbonyl)-5-(trifluoromethoxy)phenyl)-2-methoxybenzenesulfonamide]: the Ki was 5880 nM.
As for `CN(CC1CCCO1)C(=O)c1cc(Cl)cc(NS(=O)(=O)c2cc(Br)ccc2O)c1O` (stereo not drawn) [Example J37, 3-((5-Bromo-2-hydroxyphenyl)sulfonamido)-5-chloro-2-hydroxy-N-methyl-N-((tetrahydrofuran-2-yl)methyl)benzamide], the affinity, expressed as Ki, was 3780 nM.
For `CCc1cc(NS(=O)(=O)c2cc(Br)cc(F)c2O)c(O)c(C(=O)O)c1` [HCH-21, 3-((5-Bromo-3-fluoro-2-hydroxyphenyl)sulfonamido)-5-ethyl-2-hydroxybenzoic acid], the Ki is 460 nM.
Then `CCc1cc(Br)cc(S(=O)(=O)Nc2cc(Cl)cc(C(=O)O)c2O)c1O` [HCH-11, 3-((5-Bromo-3-ethyl-2-hydroxyphenyl)sulfonamido)-5-chloro-2-hydroxybenzoic acid], with 460 nM; and `O=C(O)CNC(=O)c1cc(OC(F)(F)F)cc(NS(=O)(=O)c2cc(Br)ccc2O)c1O` [HCH-1, (3-((5-Bromo-2-hydroxyphenyl)sulfonamido)-2-hydroxy-5-(trifluoromethoxy)benzoyl)glycine], with 650 nM.
In turn, `CNC(=O)c1cc(OC(F)(F)F)cc(NS(=O)(=O)c2cc(Cl)ccc2O)c1O` [Example J175, 3-((5-Chloro-2-hydroxyphenyl)sulfonamido)-2-hydroxy-N-methyl-5-(trifluoromethoxy)benzamide] returned a Ki of 810 nM.
Compound `CS(=O)(=O)c1cc(Cl)cc(NS(=O)(=O)c2cc(Br)cc(OC(F)(F)F)c2O)c1` [Example S4, 5-Bromo-N-(3-chloro-5-(methylsulfonyl)phenyl)-2-hydroxy-3-(trifluoromethoxy)benzenesulfonamide] returned an inhibition constant Ki of 850 nM.
`CCc1cc(Br)cc(S(=O)(=O)Nc2cc(Cl)cc(S(C)(=O)=O)c2)c1O` [Example S5, 5-Bromo-N-(3-chloro-5-(methylsulfonyl)phenyl)-3-ethyl-2-hydroxybenzenesulfonamide] showed a Ki of 610 nM.
